“Also recorded” adds a separate entry of the source.
B1: NGF: 2.5 S nerve growth factor (Gibco BRL) (protein, UniProt P01139 122-241, looked up)
Beta-nerve growth factor: SSTHPVFHMGEFSVCDSVSVWVGDKTTATDIKGKEVTVLAEVNINNSVFRQYFFETKCRASNPVESGCRGIDSKHWNSYCTTTHTFVKALTTDEKQAAWRFIRIDTACVCVLSRKATRRG
modifications: Beta-nerve growth factor
B2: BDNF: brain-derived neurotrophic factor (Peprotech) (protein, UniProt P23560 129-247, looked up)
Neurotrophic factor BDNF: HSDPARRGELSVCDSISEWVTAADKKTAVDMSGGTVTVLEKVPVSKGQLKQYFYETKCNPMGYTKEGCRGIDKRHWNSQCRTTQSYVRALTMDSKKRIGWRFIRIDTSCVCTLTIKRGR
modifications: Neurotrophic factor BDNF

Legend:
Type in all cases: cell-based, mouse
[1] = system: 3NA12 cells; test: Calcium imaging (Fura-2) of odorant responses in clone 3NA12; conditions: 10 μM single odorant; for Cells responding to each odorant: 1256 cells; for Cells responding to the odorant (increase in intracellular calcium concentration): total of 1256 cells in nineteen experiments, permissive conditions
Description: Prior to experiments (2-4 days), cells were plated onto glass coverslips and incubated in permissive conditions. To prepare for stimulation, cells were loaded with Fura-2 ([…]) for 30 minutes at 33° C., washed, and allowed to equilibrate for a further 30 minutes at room temperature. At the beginning of the experiment, cells were washed (W) to determine whether the mechanical disturbance associated with changing solution affected intracellular calcium concentrations.
To determine whether cells from the 3NA12 clone were capable of functional responses to odorants, single odorants were applied to cells loaded with Fura-2. […] Since the onset of odorant receptor expression is at c. E13 in the rat (Strotmann et al., 1995), and each of the components of the signal transduction pathway is present in cells cultured in permissive conditions, cells at permissive conditions were chosen for all subsequent experiments.
Cloned olfactory receptor neurons were plated onto glass coverslips up to one week before imaging. On the day of analysis, the culture medium was removed and replaced with MDV containing 2 μM Fura-2-AM (Molecular Probes, Eugene, Oreg.) and 0.2% Pluronic F-127 (Sigma) dissolved in DMSO. Cells were incubated at appropriate culture temperatures (33° C. or 37° C.) for at least 30 minutes, rinsed and allowed to equilibrate in medium for 30 minutes prior to experiments. Additionally, to ensure that a response could not be induced mechanically, each experiment was started by washing the cells with bath solution in the same manner used in odorant application. For solution exchange, 5 ml of bath solution or odorant test solution was pipeffed manually into the bath (volume, 300 μl) fitted with a continual suction pump. This ensured complete replacement of the bath solution with the incoming solution without altering bath volume. Single odorants were applied to the cloned cell line 3NA12 and mixtures of odorants were applied to primary cultures of mouse olfactory bulb neurons and rat ORNs. […] When single odorants were used, they were taken from Mixture 2. Stock solutions of odorants (20 mM in DMSO) were made up every second day and diluted 1:2000 in bath solution (final concentration, 10 μM each) within seconds of application. The bath solution contained 140 mM NaCl, 5 mM KCl, 2 mM CaCl2, 10 mM HEPES and 10 mM glucose at pH 7.4. Calcium imaging was performed as described previously (Krautwurst et al., 1998; Grynkiewicz et al., 1985), in which ratiometric measurements were obtained using the Zeiss/Attofluor-Ratiovision imaging system on a Zeiss Axiovert 135 microscope fitted with an F Fluor 20×/1.30 lens. Cells were illuminated at 340 nm and 380 nm and the emission at 510 nm was monitored using an intensified CCD camera. The Attofluor-Ratiovision software was used to derive the Ca^2+-dependent ratio. Solutions of CaCl2 (1 mM) and EDTA (1 mM) containing Fura-2 pentasodium salt ([…], Molecular Probes) were used to provide a two-point calibration of the experimental set-up as directed by the instrument manufacturer (Atto Instruments, Rockville, Md.).

[2] = system: NST+ cells in the heterogeneous culture; test: Counting NST+ cells (anti-NST labeling) in heterogeneous olfactory cell cultures with growth factors; conditions: for Effect on the number of NST+ cells (in words): permissive conditions (33° C.)
Description: FIG. 2A. Interferon causes a significant, dose-dependent increase in the number of NST+ cells in the heterogeneous culture, with an EC50 of 0.4 U.ml^−1. Cells were incubated at 33° C. and were stained with anti-NST and rhodamine-coupled secondary antibodies seven days after plating. Cell counts were obtained from ten randomly selected areas in each experiment. Data were normalized to the mean number of NST+ cells in the absence of interferon and each point represents the mean ±S.E.M from three experiments.
FIG. 2B. EGF (•) and NGF (□) both have mitogenic effects in permissive conditions over and above the effect of interferon. NST+ cells were counted as described in (A) and were normalized to baseline levels in the presence of interferon (40 U.ml^−1). […] Except for the presence of interferon (40 U.ml^−1), all experimental conditions were as in A.
To determine the optimal conditions for cell survival, growth, differentiation and maturation, cells were cultured in permissive and non-permissive conditions in the presence of interferon, EGF, NGF, BDNF and NT-3. […] The effects of EGF, NGF, BDNF and NT-3 on cell maturation in non-permissive culture conditions were
To keep the amount of expressed TAg to the minimum required for immortalization (Noble et al., 1995), heterozygous offspring from homozygous male H-2K^b-tsA58 transgenic and C57B1 female mice (Charles River Laboratories, Wilmington Mass., and Jackson Laboratory, Bar Harbor, Me., respectively) were used to generate the conditionally immortal neuronal cell culture. Cells were isolated in a procedure modified from a previously established technique (Ronnett et al., 1991). Briefly, post-natal day 1-3 animals were decapitated and the heads were sectioned longitudinally. The olfactory epithelium and nasal septum were removed and placed in an Eppendorf tube containing 500 μl culture medium. The culture medium consisted of Minimum Essential Medium in which the L-valine has been replaced by D-valine (MDV). This was supplemented with 10% fetal bovine serum (FBS), 4 mM glutamine, kanamycin (100 μg.ml^−1), gentamicin (50 U.ml^−1) and amphotericin B (2.5 μg.ml^−1; all from Gibco BRL, Gaithersburg, Md.). The MDV medium was chosen because fibroblasts lack D-amino acid oxidase and the reduction of L-valine inhibits fibroblast survival and growth (Gilbert et al., 1986). Tissue was centrifuged at low speed for two minutes and then most of the medium was removed. The cell pellet was chopped briefly with a pair of fine-point scissors before being resuspended in supplemented cell culture medium. The resultant cell clumps and cell suspension were plated out onto 2- or 4-chamber glass slides (Nunc, Naperville, Ill.) or plastic dishes (Fisher Scientific, Pittsburgh, Pa.). To enhance ORN adhesion, all cell culture materials were pretreated with laminin (0.125 mg.ml^−1 in serum-free media, Collaborative Biomedical Products, Bedford, Mass.) for at least 12 hours, prior to plating. Cells were maintained in culture at 33° C. (the permissive temperature for the SV40 TAg) and, to stimulate transcription of the transgene, the culture medium was supplemented with murine γ-interferon (40 U.ml^−1, Genzyme, Cambridge, Mass.). Provisionally, in permissive conditions, the cell culture medium was supplemented with epidermal growth factor (EGF, 20 ng.ml^−1, Gibco BRL) and 2.5 S nerve growth factor (NGF, 10 ng.ml^−1, Gibco BRL) before thorough characterizations of their effects were made in later experiments.
To determine optimum conditions for cell survival, growth, differentiation or maturation, numerous combinations of culture conditions were tested. These included i) removal of the olfactory epithelium from newborn, 4-week-old, and sexually mature animals, ii) subjecting tissue to digestion by trypsin (Gibco BRL, 0.5 g.l^−1 for 60 minutes at 37° C.), iii) addition of growth factors to the culture medium and iv) the use of diverse culture media. […]

[3] = system: olfactory marker protein (OMP); test: OMP expression by Western blot in cells in non-permissive conditions; conditions: 37° C., heterogeneous cell cultures, 15 μg protein per lane
Description: FIG. 2C. Effects of EGF, NGF, BDNF and NT-3 on OMP expression as determined by Western blot. Cells were maintained in non-permissive conditions at 37° C. in the absence of growth factors (C) or in presence of EGF (E), NGF (N), BDNF (B) or NT-3 (3). Samples were isolated from the heterogeneous cell cultures and from olfactory tissue (T), and were separated on a SDS-polyacrylamide gel (15 μg protein per lane). OMP is a 19 kD protein and, in situ, is expressed only in mature olfactory receptor neurons. OMP was not detected in control cells (C), cultured in the absence of growth factors or in cells incubated in the presence of EGF.
assayed by Western blot detection of olfactory marker protein (OMP), a marker of mature olfactory receptor neurons (Margolis, 1988).
Cells were always maintained in permissive culture conditions except when attempts were made to obtain a differentiated phenotype through transgene inactivation. In this case, cells were incubated in non-permissive culture conditions, i.e. at 37° C. in γ-interferon-free media for seven days, before the effects of transgene inactivation were determined. The effects of EGF, NGF, BDNF and NT-3 in promoting cell maturation/differentiation were assessed and, based on those experiments, BDNF and NT-3 were routinely added to the culture medium for cells in non-permissive culture conditions. In both culture environments, the air was kept humidified and contained 5% CO2.
Cells were scraped into a cold isolation buffer containing 20 mM Na(N-tris[hydroxymethyl]methyl-2-aminoethanesulfonic acid) (Na TES), 10 mM mannitol and 1% Triton X-100 at pH 7.4. The isolation buffer was supplemented with phenylmethylsulfonyl fluoride (30 μg.ml^−1), leupeptin (2 μg.ml^−1), benzamidine (16 μg.ml^'1), pepstatin (2 μg.ml^−1), and lima bean trypsin inhibitor (50 μg.ml^−1) to prevent protease activity. After five freeze/thaw cycles, cell extracts were centrifuged at 2,000 g for 5 minutes to pellet nuclei and cell debris. […]

[4] = 33° C., 100 ng.ml^−1, in the presence of 40 U.ml^−1 interferon, normalized to that point

| Molecule | Cells responding to each odorant [1] [%] | Cells responding to the odorant (increase in intracellular calcium concentration) [1] [cells] | Effect on the number of NST+ cells (in words) [2] | other results |
| --- | --- | --- | --- | --- |
| CC(=O)c1ccccc1 [acetophenone] | ~1 | 15 |  |  |
| Interferon: murine γ-interferon (Genzyme), stimulates transcription of the transgene |  |  | significant increase | EC50 (increase in number of NST+ cells) ([2]; 33° C., permissive, seven days after plating, sigmoidal curve fit): 0.4 U.ml^−1; Normalized # of NST+ Cells ([2]; 33° C., interferon 40 U.ml^−1, normalized to NST+ cells cultured in the absence of interferon): 2.0 ± 0.2; Normalized # of NST+ Cells ([2]; 37° C., interferon 40 U.ml^−1, normalized to absence of interferon): 1.9 ± 0.1 |
| EGF: epidermal growth factor (Gibco BRL) |  |  | increased the number of NST+ cells; also recorded: greatest increase of NST+ cells | Normalized # of NST+ Cells ([2]; 33° C., 10 ng.ml^−1, in the presence of 40 U.ml^−1 interferon, normalized to that point): 1.7 ± 0.2 |
| L-carvone | ~1 | 16 |  |  |
| CCCCCCC=O [heptaldehyde] | ~1 | 17 |  |  |
| B1 |  |  | increased the number of NST+ cells | OMP expression detected by Western blot (in words) [3]: barely detectable; Normalized # of NST+ Cells [2, 4]: 1.5 ± 0.2 |
| B2 |  |  | no effect | OMP expression detected by Western blot (in words) [3]: significant expression of OMP could be observed; also recorded: to a lesser degree, was detected; Normalized # of NST+ Cells [2, 4]: 1.3 ± 0.2; Normalized # of NST+ Cells ([2]; 37° C., 100 ng.ml^−1): 1.3 ± 0.2 |
